Assay [1] concerns the target T1, ANP receptor (Sus scrofa, UniProt F1SFW3).
T1 construct: ANP receptor-expressing LLC-PK1 cells; endogenous in cells; host or cells: LLC-PK1 cells
T1 sequence (F1SFW3 29-1057): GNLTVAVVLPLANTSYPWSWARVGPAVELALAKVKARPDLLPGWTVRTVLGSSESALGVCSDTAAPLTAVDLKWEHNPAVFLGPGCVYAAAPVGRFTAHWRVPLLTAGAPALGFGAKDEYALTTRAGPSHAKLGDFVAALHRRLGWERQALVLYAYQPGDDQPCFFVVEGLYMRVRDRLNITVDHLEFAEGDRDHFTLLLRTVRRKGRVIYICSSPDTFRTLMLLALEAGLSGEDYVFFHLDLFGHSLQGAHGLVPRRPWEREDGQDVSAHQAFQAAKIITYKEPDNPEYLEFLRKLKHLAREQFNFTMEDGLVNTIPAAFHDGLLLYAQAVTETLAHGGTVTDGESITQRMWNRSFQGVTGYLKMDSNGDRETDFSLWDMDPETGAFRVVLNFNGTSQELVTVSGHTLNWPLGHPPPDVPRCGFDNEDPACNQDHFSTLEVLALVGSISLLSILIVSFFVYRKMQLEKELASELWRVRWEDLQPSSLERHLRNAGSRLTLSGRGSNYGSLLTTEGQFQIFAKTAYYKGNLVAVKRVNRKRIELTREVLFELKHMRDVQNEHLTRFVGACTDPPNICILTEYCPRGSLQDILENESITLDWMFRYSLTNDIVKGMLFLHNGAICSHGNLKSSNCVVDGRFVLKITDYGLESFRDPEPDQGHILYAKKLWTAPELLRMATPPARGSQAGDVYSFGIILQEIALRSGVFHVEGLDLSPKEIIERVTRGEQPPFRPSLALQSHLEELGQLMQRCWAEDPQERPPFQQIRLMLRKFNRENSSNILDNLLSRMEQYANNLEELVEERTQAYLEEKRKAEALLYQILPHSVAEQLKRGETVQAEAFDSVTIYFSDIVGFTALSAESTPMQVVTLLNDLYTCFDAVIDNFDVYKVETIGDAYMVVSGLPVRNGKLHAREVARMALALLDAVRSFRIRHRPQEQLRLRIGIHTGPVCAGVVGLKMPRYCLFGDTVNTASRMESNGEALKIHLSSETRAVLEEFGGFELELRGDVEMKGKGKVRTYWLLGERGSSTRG
Description: cGMP production in ANP receptor-expressing LLC-PK1 cells. The assay is classed as cell-based. The settings on record: 30 min stimulation, 10^-6M through 10^-12M, NR = No response detected. How it is done:
The bifunctional hormone was tested on ANP receptor-expressing LLC-PK1 cells and on MCR1 receptor-expressing B16-F1 cells. Both cell types were cultured 24 hours before the stimulation, in 96-well plates, at a concentration of 1.0×10^5 cells/ml. Before stimulation, cells were starved 2 hours in DPBS only and incubated 10 min in assay buffer (DPBS containing 20 mM HEPES, 0.1% BSA and 500 μM IBMX). The dose response curve of the bifunctional hormone was done for 30 minutes with concentrations of 10^−6M through 10^−12M. Supernatant was collected and cAMP (B16-F1) or cGMP (LLC-PK1) was measured with a radiolabeled kit from GE Healthcare Company.

Assay [2] deals with normal men. The settings on record: infusion in normal men; cited from earlier work.

Bridge positions count the residues as written; N and C are the ends. Square brackets hold non-standard residues; d marks the D form. Peptide text beside a SMILES is read from it.

Broadly, the EC50 is the concentration giving half of the maximal effect. Low readings indicate a more potent agent, high ones a less potent agent. In assay [1], `CC[C@H](C)[C@@H]1NC(=O)[C@H](CCCNC(=N)N)NC(=O)[C@H](CC(=O)O)NC(=O)[C@H](CCSC)NC(=O)[C@H](CCCNC(=N)N)NC(=O)CNC(=O)CNC(=O)[C@H](Cc2ccccc2)NC(=O)[C@@H](NC(=O)[C@H](CO)NC(=O)[C@H](CO)NC(=O)[C@H](CCCNC(=N)N)NC(=O)[C@H](CCCNC(=N)N)NC(=O)CNC(=O)[C@H](Cc2c[nH]c3ccccc23)NC(=O)[C@H](CCCNC(=N)N)NC(=O)[C@H](Cc2ccccc2)NC(=O)[C@H](Cc2c[nH]cn2)NC(=O)[C@H](CCC(=O)O)NC(C)=O)CSSC[C@@H](C(=O)N[C@@H](CC(N)=O)C(=O)N[C@@H](CO)C(=O)N[C@@H](Cc2ccccc2)C(=O)N[C@@H](CCCNC(=N)N)C(=O)N[C@@H](Cc2ccc(O)cc2)C(N)=O)NC(=O)CNC(=O)[C@H](CC(C)C)NC(=O)CNC(=O)[C@H](CO)NC(=O)[C@H](CCC(N)=O)NC(=O)[C@H](C)NC(=O)CNC1=O` [SEQ ID NO: 41, Ac-E-H-F-R-W-G-R-R-S-S-[C-F-G-G-R-M-D-R-I-G-A-Q-S-G-L-G-C]-N-S-F-R-Y-NH2] (Ac-EHFRWGRRSSCFGGRMDRIGAQSGLGCNSFRY-NH2; disulfide 11-27) gave an EC50 of 8.9 nM.

As to `CC[C@H](C)[C@@H]1NC(=O)[C@H](CCCNC(=N)N)NC(=O)[C@H](CC(=O)O)NC(=O)[C@H](CCSC)NC(=O)[C@H](CCCNC(=N)N)NC(=O)CNC(=O)CNC(=O)[C@H](Cc2ccccc2)NC(=O)[C@@H](NC(=O)[C@H](CO)NC(=O)[C@H](CO)NC(=O)[C@H](CCCNC(=N)N)NC(=O)[C@H](CCCNC(=N)N)NC(=O)CNC(=O)[C@H](Cc2c[nH]c3ccccc23)NC(=O)[C@H](CCCNC(=N)N)NC(=O)[C@@H](Cc2ccccc2)NC(=O)[C@H](Cc2c[nH]cn2)NC(=O)[C@H](CCC(=O)O)NC(C)=O)CSSC[C@@H](C(=O)N[C@@H](CC(N)=O)C(=O)N[C@@H](CO)C(=O)N[C@@H](Cc2ccccc2)C(=O)N[C@@H](CCCNC(=N)N)C(=O)N[C@@H](Cc2ccc(O)cc2)C(N)=O)NC(=O)CNC(=O)[C@H](CC(C)C)NC(=O)CNC(=O)[C@H](CO)NC(=O)[C@H](CCC(N)=O)NC(=O)[C@H](C)NC(=O)CNC1=O` [SEQ ID NO: 42, Ac-E-H-f-R-W-G-R-R-S-S-[C-F-G-G-R-M-D-R-I-G-A-Q-S-G-L-G-C]-N-S-F-R-Y-NH2] (Ac-EH[dF]RWGRRSSCFGGRMDRIGAQSGLGCNSFRY-NH2; disulfide 11-27), the EC50 in assay [1] stood at 502 nM.

For the molecule `CC[C@H](C)[C@@H]1NC(=O)[C@H](CCCNC(=N)N)NC(=O)[C@H](CC(=O)O)NC(=O)[C@H](CCSC)NC(=O)[C@H](CCCNC(=N)N)NC(=O)CNC(=O)CNC(=O)[C@H](Cc2ccccc2)NC(=O)[C@@H](NC(=O)[C@H](CCSC)NC(=O)[C@@H]2CCCN2C(=O)[C@H](CCCCN)NC(=O)CNC(=O)[C@H](Cc2c[nH]c3ccccc23)NC(=O)[C@H](CCCNC(=N)N)NC(=O)[C@H](Cc2c[nH]cn2)NC(C)=O)CSSC[C@@H](C(=O)N[C@@H](CC(N)=O)C(=O)N[C@@H](CO)C(=O)N[C@@H](Cc2ccccc2)C(=O)N[C@@H](CCCNC(=N)N)C(=O)N[C@@H](Cc2ccc(O)cc2)C(N)=O)NC(=O)CNC(=O)[C@H](CC(C)C)NC(=O)CNC(=O)[C@H](CO)NC(=O)[C@H](CCC(N)=O)NC(=O)[C@H](C)NC(=O)CNC1=O` [SEQ ID NO: 43, Ac-H-R-W-G-K-P-M-[C-F-G-G-R-M-D-R-I-G-A-Q-S-G-L-G-C]-N-S-F-R-Y-NH2] (Ac-HRWGKPMCFGGRMDRIGAQSGLGCNSFRY-NH2; disulfide 8-24), the response in assay [1] was half-maximal at 86.8 nM (EC50).

In the case of “S-P-K-M-V-Q-G-S-G-[C-P-G-R-K-M-D-R-I-S-S-S-S-G-L-G-C]-K-V-L-R-R-H [BNP]”, in assay [2], the “increase in sodium excretion” value is reported as 2 fold; the “reduction in plasma renin, angiotensin II and aldosterone secretion” value is on record as 50%.

Source of the values: patent US8822413B2, “Bifunctional hormone having alpha-MSH activity and natriuretic peptide activity and uses thereof” (Theratechnologies Inc., priority 2007, dated 2014).
